Patent US6369109B1, “Betulinic acid and derivatives thereof useful for the treatment of neuroectodermal tumor” (Deutsches Krebsforschungszentrum Stiftung des Offentlichen …, priority 1998, dated 2002)
Entries after “also recorded” stand apart in the source; their conditions may differ. Residues, ends and D or L forms follow the SMILES beside them. *: point of attachment. Cbz = O=C(OCc1ccccc1)*; CH2F = FC*

Legend:
[1] = system: mitochondria isolated from SHEP cells; test: Mitochondrial membrane potential of isolated mitochondria (DiOC6(3)); type: biochemical, human; conditions: FIG. 7, 12D; for effect of inhibitor on betulinic acid-induced Δψm loss in isolated mitochondria: 50 μM bongkrekic acid or 60 μM zVAD-fmk
Method: For isolation of mitochondria, cells (3×10^5 per sample) were washed twice with ice-cold PBS and resuspended with five volumes of buffer A (50 mM Tris, 1 mM EGTA, 5 mM 2-mercaproethanol, 0.2% BSA, 10 mM KH2PO4, pH 7.6, 0.4 M sucrose) and allowed to swell on ice for 20 min. Cells were homogenized with 30 strokes of a Teflon homogenizer and centrifuged at 10000 g for 10 min at 4° C. The resulting pellets were resuspended in buffer B (10 mM KH2PO4, pH 7.2, […] mannitol, 0.1% BSA). Mitochondria were separated by sucrose gradient (lower layer: 1.6 M sucrose, 10 mM KH2PO4, pH 7.5, 0.1% BSA; upper layer: 1.2 M sucrose, 10 mM KH2PO4, pH 7.5, 0.1% BSA). Interphases containing mitochondria were washed with buffer B at 18000 g for 10 min at 4° C. and the resulting mitochondrial pellets were resuspended in buffer B. For preparation of cytosolic extracts, cells (1×10^8 per sample) were washed twice with ice-cold PBS, resuspended with one volume of buffer A and allowed to swell on ice for 20 min. Cells were homogenized with 30 strokes of a Dounce homogenizer and centrifuged at 15000×g for 15 min ax 4° C. The protein concentration of mitochondria or cytosolic extracts was determined by Bradford method (Bio-Rad). For isolation of nuclei, cells were washed twice in ice-cold PBS, resuspended in 10 volumes of buffer C (10 mM PIPES, pH 7.4, 10 mM KCl, 2 mM MgCl2, 1 mM DDT, 1 mM PMSF, 10 μM cytochalasin B), allowed to swell on ice for 20 min and homogenized using a Teflon homogenizer. Homogenates were layered over 30% sucrose in buffer C and centrifuged at 800 g for 10 min. The resulting nuclear pellets were resuspended in buffer C and washed three times. Nuclei were scored at −80° C. in aliquots of 10^8 nuclei/ml until required. AIF-containing mitochondrial supernatant was prepared as described in Susin et aL, 1997, J. Exp. Med. 186, 5-37 and Susin et al., 1996, J. Exp. Med. 184, 1331-41.
Mitochondria (5×10^5/ml) were treated with 10 μg/ml betulinic acid for 30 min, incubated with 3,3′-dihexyloxacarbocyanide iodide (DiOC6(3), 40 nM, Molecular Probes, Inc., Eugene, Oreg.) for 15 min at 37° C. and analyzed on a flow cytometer (FACS Vantage, Becton Dickinson). As a control, cells were treated with the uncoupling agent carbonyl cyanide m-chlorophenylhydrazone (mCICCP, 200 μM, Sigma).

[2] = system: isolated nuclei with mitochondria from SHEP cells; test: Cell-free system of apoptosis: nuclear fragmentation of isolated nuclei; type: biochemical, human; conditions: for effect of inhibitor on betulinic acid-induced fragmentation of nuclei / effect of inhibitor on nuclear fragmentation by mitochondria from drug-pretreated cells / effect of inhibitor on DNA fragmentation by supernatants from betulinic acid-treated mitochondria: 50 μM bongkrekic acid or 60 μM zVAD-fmk; for effect of inhibitor on DNA fragmentation by supernatants from betulinic acid-treated mitochondria: FIG. 10B
Method: (§1) For determination of nuclear fragmentation, nuclei (10^3/μl) were incubated with mitochondria (1 μg/μl) in buffer D (10 mM HEPES, pH 7.4, 50 mM NaCl, 2 mM MgCl2, 5 mM EGTA, 1 mM DDT, 2 mM ATP, 10 mM phosphocreatine, 50 μg/ml creatine kinase, 10 μM cytochalasin B) for 2 h at 37° C. Nuclei were stained with propidium iodide ([…]) and analyzed by flow cytometry. For determination of caspase activation, cytosolic extracts (2 μg/μl) were incubated with mitochondria (1 μg/μl), cytochrome c (0.1-100 μM) or AIF-containing mitochondrial supernatant (0.5 μg/μl) in buffer D for 2 h at 37° C. Partially purified AIF (cytochrome c-free) was prepared as previously described (0.5 mg/ml, Susin et al., 1997, J. Exp. Med. 186, 5-37; Susin et al., 1996, J. Exp. Med. 184, 1331-41). Proteins were separated by 15% SDS-PAGE and Western blot analysis was performed as described above.
Mitochondria isolated from SHEP cells, transfected with bcl-2 or bcl-XL or a neomycin resistance vector only, were incubated for 6 h with nuclei and 0.1-10 μg/ml betulinic acid (FIG. 8A) or 5 mM atractyloside (FIG. 8B) in the presence or absence of 50 μM bongkrekic acid or 60 μMZ-VAD-fnk. Nuclei incubated with either mitochondria from vector only cells or with betulinic acid were used as control. Nuclear apoptosis was determined by FACS analysis of propidium iodide stained DNA content.
SHEP cells transfected with bcl-2 or bcl-XL or a neomycin resistance vector only were treated with 10 μg/ml betulinic acid or 5 mM atractyloside for 6-24 h (FIG. 8C). Mitochondria were isolated and incubated with nuclei in the presence or absence of 50 μM bongkrekic acid or 60 μMZ-VAD-fmk. Nuclei incubated with either mitochondria front vector only cells or with betulinic acid were used as control. Nuclear apoptosis was determined by FACS analysis of propidium iodide stained DNA content.
Mitochondria isolated from SHEP cells transfected with bcl-2, Bcl-XL or a neomycin resistance vector only were treated with 10 μg/ml betulinic acid or 5 mM atractyloside for 0.5 h in the presence or absence of 50 μM bongkrekic acid or 60 μM zVAD-fmk. Mitochondrial supernatants obtained by high speed centrifugation were incubated with nuclei for 2 h at 37° C. Nuclei incubated with supernatants of untreated mitochondria were used as control.. Nuclear apoptosis was determined by FACS analysis of propidium iodide stained DNA content.
as §1, with “cytometry (Susin et al., 1997 Exp. Cell Res. 236:397-403).” for “cytometry.”, “(10” for “(0.1-100”, “C.” for “C. Partially purified AIF (cytochrome c-free) was prepared as previously described (0.5 mg/ml, Susin et al., 1997, J. Exp. Med. 186, 5-37; Susin et al., 1996, J. Exp. Med. 184, 1331-41).”, “before.” for “above.”
SHEP cells transfected with Bcl-2 or BCl-XL or a neomycin resistance vector only (Neo) were treated with 0.5 μg/ml Doxorubicin or 10 μg/ml Betulinic acid for 48 h (A) or 24 h (B and C). Cells transfected with a neomycin resistance vector only (Neo) were treated in the presence or absence of 50 μm BA or 60 μm zVAD-fmk. Nuclear apoptosis was determined by FACS analysis or propidium iodide-stained DNA content in intact cells (A) or in a CFS incubating isolated nuclei with mitochondria from cells treated with Doxo or betulinic acid (C). ΔΨm was determined by staining cells with the potential-sensitive fluorochrome DiOC6(3) (B).

| Structure (SMILES) | effect of inhibitor on betulinic acid-induced Δψm loss in isolated mitochondria [1] | effect of inhibitor on betulinic acid-induced fragmentation of nuclei ([2]; FIG. 8A) | effect of inhibitor on nuclear fragmentation by mitochondria from drug-pretreated cells ([2]; FIG. 8C, 12C) | effect of inhibitor on DNA fragmentation by supernatants from betulinic acid-treated mitochondria [2] | Δψm of isolated mitochondria ([1]; mitochondria from wild type or vector-only SHEP cells, 10 μg/ml betulinic acid, 30 min) | nuclear fragmentation by mitochondria isolated from drug-pretreated cells ([2]; 10 μg/ml betulinic acid or 0.5 μg/ml doxorubicin, FIG. 8C, 12C) | nuclear DNA fragmentation, mitochondria plus nuclei plus drug ([2]; Neo control mitochondria, 0.1-10 μg/ml betulinic acid or 5 mM atractyloside, 6 h, FIG. 8A, 8B) |
| --- | --- | --- | --- | --- | --- | --- | --- |
| CO[C@H](C/C=C\C=C\CC/C=C/C[C@H](C)/C=C/C(=C\C(=O)O)CC(=O)O)/C(C)=C\C=C(/C)C(=O)O [bongkrekic acid] | inhibited | inhibited | again blocked | also blocked | – | – | – |
| COc1cccc2c1C(=O)c1c(O)c3c(c(O)c1C2=O)C[C@@](O)(C(=O)CO)C[C@@H]3O[C@H]1C[C@H](N)[C@H](O)[C@H](C)O1 [doxorubicin] | – | – | – | – | did not induce mitochondrial perturbations | induced nuclear DNA fragmentation | No DNA fragmentation was observed |
| COC(=O)C[C@H](NC(=O)[C@H](C)NC(=O)[C@@H](NC(=O)OCc1ccccc1)C(C)C)C(=O)CF [zVAD-fmk, benzyloxycarbonyl-Val-Ala-Asp-Fluoromethylketone] (Cbz-Val-Ala-Asp(OMe)-CH2F) | did not interfere; also recorded: not blocked | inhibited | again blocked | also blocked | – | – | – |
